Results reported in US12331044B2, “Inhibitors of histone deacetylase useful for the treatment or prevention of HIV infection” (Merck Sharp & Dohme LLC, priority 2018, dated 2025).
Like-named read-outs stand apart in the source and are kept apart here.

Assays:
[1] = biological target: human HDAC1 (Homo sapiens (Human), UniProt Q13547)
[2] = biological target: HDAC6 (Homo sapiens (Human), UniProt Q9UBN7)
[3] = biological target: human HDAC3/SMRT heterodimer (Homo sapiens (Human), UniProt O15379)
[4] = biological target: human HDAC8 (Homo sapiens (Human), UniProt Q9BY41); test: HDAC8 inhibition assay (modified FLUOR DE LYS, 384-well); assay type: biochemical; conditions: […] enzyme, 200 μM substrate BML-KI178, 3 h pre-incubation; read-out: HDAC8 IC50
[5] = system: KARN cells (Jurkat 2C4); test: cells; conditions: Homo sapiens
[6] = biological target: human HDAC2 (Homo sapiens (Human), UniProt Q92769); test: HDAC2 inhibition assay (modified FLUOR DE LYS, 384-well); assay type: biochemical; conditions: […] enzyme, 40 μM substrate BML-KI104, 3 h pre-incubation; read-out: HDAC2 IC50
[7] = read-out: Karn EC50 nM 0.1% NHS, 0.1% normal human serum, luciferase induction, 2 μM SAHA = 100%
[8] = read-out: Karn EC50 nM 5% NHS, 5% normal human serum, luciferase induction, 2 μM SAHA = 100%

Sequence of human HDAC1 (Q13547 whole entry): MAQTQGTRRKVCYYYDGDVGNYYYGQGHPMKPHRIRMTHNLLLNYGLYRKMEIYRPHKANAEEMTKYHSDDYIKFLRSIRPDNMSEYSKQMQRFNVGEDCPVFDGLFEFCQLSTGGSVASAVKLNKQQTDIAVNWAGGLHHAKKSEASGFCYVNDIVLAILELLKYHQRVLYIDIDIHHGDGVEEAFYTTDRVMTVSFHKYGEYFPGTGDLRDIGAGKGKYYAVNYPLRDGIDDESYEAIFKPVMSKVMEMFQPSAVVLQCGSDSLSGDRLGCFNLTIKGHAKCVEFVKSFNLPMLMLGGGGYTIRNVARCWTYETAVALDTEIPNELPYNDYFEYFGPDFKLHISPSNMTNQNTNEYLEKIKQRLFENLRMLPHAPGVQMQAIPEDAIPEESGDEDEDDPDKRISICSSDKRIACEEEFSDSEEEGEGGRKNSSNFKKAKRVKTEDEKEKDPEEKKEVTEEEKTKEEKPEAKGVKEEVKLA
Sequence of human HDAC2 (Q92769 whole entry): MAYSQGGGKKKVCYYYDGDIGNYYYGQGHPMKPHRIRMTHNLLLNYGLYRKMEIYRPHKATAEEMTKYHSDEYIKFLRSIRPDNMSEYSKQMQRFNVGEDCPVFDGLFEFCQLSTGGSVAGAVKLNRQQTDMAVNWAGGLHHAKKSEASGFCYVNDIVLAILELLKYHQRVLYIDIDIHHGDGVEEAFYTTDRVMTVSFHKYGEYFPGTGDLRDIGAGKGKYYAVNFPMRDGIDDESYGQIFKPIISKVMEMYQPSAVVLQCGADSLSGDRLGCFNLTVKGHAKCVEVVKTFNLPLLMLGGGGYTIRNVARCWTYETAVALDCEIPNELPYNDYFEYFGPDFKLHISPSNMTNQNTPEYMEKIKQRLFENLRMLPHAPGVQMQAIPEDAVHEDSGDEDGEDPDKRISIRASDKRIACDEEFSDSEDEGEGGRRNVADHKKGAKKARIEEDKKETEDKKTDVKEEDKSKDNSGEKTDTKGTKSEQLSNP
Sequence of HDAC6 (Q9UBN7 whole entry): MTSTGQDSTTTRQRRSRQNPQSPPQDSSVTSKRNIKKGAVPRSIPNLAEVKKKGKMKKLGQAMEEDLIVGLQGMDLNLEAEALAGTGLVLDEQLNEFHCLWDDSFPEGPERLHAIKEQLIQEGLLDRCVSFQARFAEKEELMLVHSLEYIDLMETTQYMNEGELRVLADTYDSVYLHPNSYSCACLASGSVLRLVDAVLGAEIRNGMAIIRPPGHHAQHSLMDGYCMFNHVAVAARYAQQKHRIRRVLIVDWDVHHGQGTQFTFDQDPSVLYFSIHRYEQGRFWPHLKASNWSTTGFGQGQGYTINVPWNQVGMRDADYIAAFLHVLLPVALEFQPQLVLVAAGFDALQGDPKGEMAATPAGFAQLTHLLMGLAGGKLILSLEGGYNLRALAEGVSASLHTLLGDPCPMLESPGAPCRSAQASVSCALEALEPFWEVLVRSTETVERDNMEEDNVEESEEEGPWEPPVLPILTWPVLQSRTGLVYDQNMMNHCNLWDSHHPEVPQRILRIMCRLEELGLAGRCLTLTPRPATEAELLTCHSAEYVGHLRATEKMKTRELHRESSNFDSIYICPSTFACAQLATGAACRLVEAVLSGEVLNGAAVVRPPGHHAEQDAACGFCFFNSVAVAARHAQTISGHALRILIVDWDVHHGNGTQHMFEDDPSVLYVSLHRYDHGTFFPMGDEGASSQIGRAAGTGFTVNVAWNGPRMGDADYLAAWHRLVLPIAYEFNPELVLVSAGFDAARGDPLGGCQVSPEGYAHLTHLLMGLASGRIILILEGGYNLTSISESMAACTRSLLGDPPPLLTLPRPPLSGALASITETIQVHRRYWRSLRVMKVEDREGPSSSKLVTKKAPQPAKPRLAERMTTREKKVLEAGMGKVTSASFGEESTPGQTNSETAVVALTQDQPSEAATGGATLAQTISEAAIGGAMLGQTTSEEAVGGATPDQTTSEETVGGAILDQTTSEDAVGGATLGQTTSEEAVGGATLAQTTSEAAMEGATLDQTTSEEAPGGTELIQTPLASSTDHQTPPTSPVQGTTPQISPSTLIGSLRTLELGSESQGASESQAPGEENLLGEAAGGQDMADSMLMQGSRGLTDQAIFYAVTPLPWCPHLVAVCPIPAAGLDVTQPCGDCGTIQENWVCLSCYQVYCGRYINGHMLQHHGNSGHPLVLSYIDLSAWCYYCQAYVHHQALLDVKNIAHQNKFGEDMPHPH
Sequence of human HDAC3/SMRT heterodimer (O15379 whole entry): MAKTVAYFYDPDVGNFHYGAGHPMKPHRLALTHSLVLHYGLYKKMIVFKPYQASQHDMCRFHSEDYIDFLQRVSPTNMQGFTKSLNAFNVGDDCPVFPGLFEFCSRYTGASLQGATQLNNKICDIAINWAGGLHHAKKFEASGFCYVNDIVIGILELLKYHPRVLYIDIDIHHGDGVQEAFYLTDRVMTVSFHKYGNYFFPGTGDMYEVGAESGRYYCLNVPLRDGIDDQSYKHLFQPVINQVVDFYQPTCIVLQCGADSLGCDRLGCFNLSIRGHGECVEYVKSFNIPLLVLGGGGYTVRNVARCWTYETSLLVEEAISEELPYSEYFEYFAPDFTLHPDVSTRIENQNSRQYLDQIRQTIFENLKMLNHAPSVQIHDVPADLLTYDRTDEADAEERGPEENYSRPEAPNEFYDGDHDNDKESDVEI
Sequence of human HDAC3/SMRT heterodimer (Q9Y618 1-899 partner): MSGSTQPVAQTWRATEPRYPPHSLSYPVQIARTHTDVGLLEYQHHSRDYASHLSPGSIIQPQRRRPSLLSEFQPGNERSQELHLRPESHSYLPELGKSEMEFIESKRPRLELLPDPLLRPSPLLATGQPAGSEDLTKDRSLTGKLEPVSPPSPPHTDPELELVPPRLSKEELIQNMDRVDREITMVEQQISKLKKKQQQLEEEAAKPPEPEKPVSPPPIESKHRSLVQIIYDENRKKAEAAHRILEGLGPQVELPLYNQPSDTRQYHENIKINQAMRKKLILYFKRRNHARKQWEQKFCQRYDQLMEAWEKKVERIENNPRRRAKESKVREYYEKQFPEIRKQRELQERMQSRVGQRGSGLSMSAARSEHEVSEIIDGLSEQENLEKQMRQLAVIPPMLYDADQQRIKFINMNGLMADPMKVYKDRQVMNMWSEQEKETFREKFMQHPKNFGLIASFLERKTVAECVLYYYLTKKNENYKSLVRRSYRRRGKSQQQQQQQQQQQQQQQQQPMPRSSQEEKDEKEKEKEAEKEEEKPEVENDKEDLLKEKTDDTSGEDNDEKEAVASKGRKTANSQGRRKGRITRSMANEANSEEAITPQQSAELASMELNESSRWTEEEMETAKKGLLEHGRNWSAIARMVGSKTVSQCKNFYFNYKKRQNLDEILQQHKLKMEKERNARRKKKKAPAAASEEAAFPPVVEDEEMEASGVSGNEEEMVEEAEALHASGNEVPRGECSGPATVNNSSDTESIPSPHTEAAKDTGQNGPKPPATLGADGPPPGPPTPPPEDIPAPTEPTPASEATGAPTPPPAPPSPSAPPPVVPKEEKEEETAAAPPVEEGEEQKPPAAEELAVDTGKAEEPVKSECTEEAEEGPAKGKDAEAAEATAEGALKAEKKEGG
Sequence of human HDAC8 (Q9BY41 whole entry): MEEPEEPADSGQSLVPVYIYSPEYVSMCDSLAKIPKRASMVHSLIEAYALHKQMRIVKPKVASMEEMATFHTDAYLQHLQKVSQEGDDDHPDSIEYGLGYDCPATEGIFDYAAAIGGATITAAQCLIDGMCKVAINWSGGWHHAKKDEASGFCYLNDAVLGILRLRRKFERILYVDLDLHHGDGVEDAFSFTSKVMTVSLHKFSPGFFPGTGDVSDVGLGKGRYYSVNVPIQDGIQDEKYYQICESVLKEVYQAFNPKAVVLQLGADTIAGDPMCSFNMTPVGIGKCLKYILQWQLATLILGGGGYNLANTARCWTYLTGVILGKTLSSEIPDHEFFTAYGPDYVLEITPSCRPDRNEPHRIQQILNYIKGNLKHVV

SMILES	IC50 [1] [nM]	IC50 [2] [nM]	IC50 [3] [nM]	IC50 [4] [nM]	EC50 [5, 7] [nM]	EC50 [5, 8] [nM]	IC50 [6] [nM]
N[C@@H](CCCCCC(=O)c1ncco1)c1ncc(-c2ccc(C(F)(F)F)cc2F)[nH]1 [Example 139, (7S)-7-amino-7-{5-[2-fluoro-4-(trifluoromethyl)phenyl]-1H-imidazol-2-yl}-1-(1,3-oxazol-2-yl)heptan-1-one]	5.6	> 900	5.9	> 900	1700	2700	28
COc1nc2ccccc2cc1-c1cnc([C@H](CCCCCC(=O)c2ncco2)NC(=O)c2ccncn2)[nH]1 [Example 149, N-[(1S)-1-[5-(2-methoxyquinolin-3-yl)-1H-imidazol-2-yl]-7-(1,3-oxazol-2-yl)-7-oxoheptyl]pyrimidine-4-carboxamide]	1.7	21000	1.5	140	69	360	6.6
CC(C)n1ccc2cc(-c3cnc([C@@H](N)CCCCCC(=O)c4ncco4)[nH]3)ccc2c1=O [Example 17]	2.1	45000	4.1	2900	650	590	17
COc1ccc(-c2cnc([C@@H](N)CCCCCC(=O)c3ncco3)[nH]2)c(F)c1 [Example 140, (7S)-7-amino-7-[5-(2-fluoro-4-methoxyphenyl)-1H-imidazol-2-yl]-1-(1,3-oxazol-2-yl)heptan-1-one]	1	> 900	1.3	> 900	390	860	6
COc1cc2nc(C)ccc2cc1-c1cnc([C@H](CCCCCC(=O)c2ccon2)NC(=O)CN(C)C)[nH]1 [Example 91]	1.5	11000	1.5	14	17	22	1.9
N[C@@H](CCCCCC(=O)c1ncco1)c1ncc(-c2cccc(C(F)(F)F)c2F)[nH]1 [Example 138, (7S)-7-amino-7-{5-[2-fluoro-3-(trifluoromethyl)phenyl]-1H-imidazol-2-yl}-1-(1,3-oxazol-2-yl)heptan-1-one]	4.3	> 900	3.9	250	2200	3400	37
Cc1ccc2cc(-c3cnc([C@@H](N)CCCCCC(=O)c4ncco4)[nH]3)c(Cl)cc2n1 [Example 22]	10	45000	6.7	1500	130	290	38
CN1CC(C(=O)N[C@@H](CCCCCC(=O)c2ncco2)c2ncc(-c3cc(OC4CCC4)ccc3F)[nH]2)C1 [Example 181, N-[(1S)-1-{5-[5-(cyclobutyloxy)-2-fluorophenyl]-1H-imidazol-2-yl}-7-(1,3-oxazol-2-yl)-7-oxoheptyl]-1-methylazetidine-3-carboxamide]	2.6	> 900	1	12	84	630	13
CN1CCC(C(=O)N[C@@H](CCCCCC(=O)c2nccs2)c2nc(-c3ccc(F)cc3)c[nH]2)CC1 [Example 6, (S)-N-(1-(4-(4-fluorophenyl)-1H-imidazol-2-yl)-7-oxo-7-(thiazol-2-yl)heptyl)-1-methylpiperidine-4-carboxamide]	2.9	45000	1.5	55	87	160	14
COc1cc2nc(C)ccc2cc1-c1cnc([C@H](CCCCCC(=O)c2ncco2)NC(=O)C2COc3ccccc3O2)[nH]1 (stereo partly drawn) [Example 171, N-[(1S)-1-[5-(7-methoxy-2-methylquinolin-6-yl)-1H-imidazol-2-yl]-7-(1,3-oxazol-2-yl)-7-oxoheptyl]-2,3-dihydro-1,4-benzodioxine-2-carboxamide]	11	> 900	4	340	180	470	56
COc1cc(-c2cnc([C@H](CCCCCC(=O)c3ncco3)NC(=O)C3CN(C)C3)[nH]2)c(F)cn1 [Example 178, N-[(1S)-1-[5-(5-fluoro-2-methoxypyridin-4-yl)-1H-imidazol-2-yl]-7-(1,3-oxazol-2-yl)-7-oxoheptyl]-1-methylazetidine-3-carboxamide]	2	5300	1.5	83	80	1000	7.8
CCN1CCC2(CC1)C[C@@H]2C(=O)N[C@@](C)(CCCCCC(=O)c1ccon1)c1ncc(-c2ccccc2F)[nH]1 [Example 183, (S)-6-ethyl-N-((S)-2-(5-(2-fluorophenyl)-1H-imidazol-2-yl)-8-(isoxazol-3-yl)-8-oxooctan-2-yl)-6-azaspiro[2.5]octane-1-carboxamide]	0.56	43000	0.48	550	37	37	2.3
Cc1cc(C(=O)CCCCC[C@H](N)c2nc(-c3ccccc3F)c[nH]2)no1 [Example 45]	8.9	45000	19	1200	460	1900	76
CCn1cc(-c2ccc3nc(C)ccc3c2)nc1[C@@H](N)CCCCCC(=O)c1ncco1 [Example 30, (S)-7-amino-7-(1-ethyl-4-(2-methylquinolin-6-yl)-1H-imidazol-2-yl)-1-(oxazol-2-yl)heptan-1-one]	49	38800	48	21000	2500	4000	230
CCN1CCC2(CC1)C[C@@H]2C(=O)N[C@@H](CCCCCC(=O)c1ncco1)c1ncc(-c2cc(OC3CCC3)ccc2F)[nH]1 [Example 182, (1S)-N-[(1S)-1-{5-[5-(cyclobutyloxy)-2-fluorophenyl]-1H-imidazol-2-yl}-7-(1,3-oxazol-2-yl)-7-oxoheptyl]-6-ethyl-6-azaspiro[2.5]octane-1-carboxamide]	2	> 900	0.79	5.6	41	190	9.1
N[C@@H](CCCCCC(=O)c1ncco1)c1nc(-c2ccc3nn(C4CC4)cc3c2)c[nH]1 [Example 14]	0.9	45000	1.1	3100	390	270	4.5
COc1cc2nc(C)ccc2cc1-c1cnc([C@H](CCCCCC(=O)c2ncco2)NC(=O)c2cc3ncccn3n2)[nH]1 [Example 161, N-[(1S)-1-[5-(7-methoxy-2-methylquinolin-6-yl)-1H-imidazol-2-yl]-7-(1,3-oxazol-2-yl)-7-oxoheptyl]pyrazolo[1,5-a]pyrimidine-2-carboxamide]	1.7	> 900	0.57	44	75	210	11
COc1cc2nc(C)ccc2cc1-c1cnc([C@H](CCCCCC(=O)c2ncco2)NC(=O)Cn2ccc(C)n2)[nH]1 [Example 166, N-[(1S)-1-[5-(7-methoxy-2-methylquinolin-6-yl)-1H-imidazol-2-yl]-7-(1,3-oxazol-2-yl)-7-oxoheptyl]-2-(3-methyl-1H-pyrazol-1-yl)acetamide]	1.7	660	0.56	75	77	200	6.2
Cn1cc2cc(-n3ccc([C@@H](N)CCCCCC(=O)c4ncco4)n3)ccc2n1 [Example 128, (7S)-7-amino-7-[1-(2-methyl-2H-indazol-5-yl)-1H-pyrazol-3-yl]-1-(1,3-oxazol-2-yl)heptan-1-one]	8	45000	10	4300	1200	1500	55
COc1nc2ccccc2cc1-c1cnc([C@H](CCCCCC(=O)c2ncco2)NC(=O)CN2CCC2)[nH]1 [Example 51]	0.38	690	0.66	31	11	56	2.3
COc1cc2nc(C)ccc2cc1-c1cnc([C@H](CCCCCC(=O)c2ncco2)NC(=O)[C@H]2CC23CCN(C)CC3)o1 [Example 113, (S)-N-((S)-1-(5-(7-methoxy-2-methylquinolin-6-yl)oxazol-2-yl)-7-(oxazol-2-yl)-7-oxoheptyl)-6-methyl-6-azaspiro[2.5]octane-1-carboxamide]	0.41	200	0.58	180	18	12	2.5
COc1cc2nc(C)ccc2cc1-c1cnc([C@H](CCCCCC(=O)c2ncco2)NC(=O)c2cc3n(n2)CCCO3)[nH]1 [Example 163, N-[(1S)-1-[5-(7-methoxy-2-methylquinolin-6-yl)-1H-imidazol-2-yl]-7-(1,3-oxazol-2-yl)-7-oxoheptyl]-6,7-dihydro-5H-pyrazolo[5,1-b][1,3]oxazine-2-carboxamide]	1.6	> 900	0.53	38	84	210	8.4
